Source: patent US20080009512A1, “Tetrahydroquinolones and Aza-Analogues Thereof for Use as Dpp-IV Inhibitors in the Treatment of Diabetes” (ASTRAZENECA AB, priority 2004, published 2008)

Biological target: T1, DPP-IV activity from human colonic carcinoma cell extracts (Caco-2) (Homo sapiens, UniProt P27487)
T1 construct: Cell extract is prepared from cells solubilized in 10 mM Tris HCI, 0.15 M NaCI, 0.04 t.i.u.aprotinin, 0.5% nonidet-P40; host or cells: Caco-2, differentiated to induce DPP-IV expression; detergent-solubilized extract
Assay: caco-2 DPP-IV Assay (CaCo2 extract, fluorescence, H-Gly-Pro-AMC substrate)
Format: biochemical
Details: solubilized Caco-2 protein extract; 11-point dose-response curves, 4 parameter logistic function
Procedure: As indicated above, all of the compounds, and their corresponding pharmaceutically-acceptable salts, are useful in inhibiting DPP-IV. […] The human colonic carcinoma cell line Caco-2 was obtained from the American Type Culture Collection (ATCC HTB 37). Differentiation of the cells to induce DPP-IV expression was accomplished as described by Reisher, et al. (Proc. Natl. Acad. Sci., Vol. 90, pgs. 5757-5761 (1993)). Cell extract is prepared from cells solubilized in 10 mM Tris HCI, 0.15 M NaCI, 0.04 t.i.u.aprotinin, 0.5% nonidet-P40, pH 8.0, which is centrifuged at 35,000 g for 30 min at 4° C. to remove cell debris.
The […] assay is conducted by adding 20 μg solubilized Caco-2 protein or purified porcine kidney DPP-IV, in a final volume of 10 ul in assay buffer (25 mM Tris HCl pH 7.4, 140 mM NaCl, 10 mM KCl, 0.1% Triton-x-100) to microtiter plate wells. […] The endpoint is determined by measuring absorbance at 405 nm in a Labsystems microtiter plate reader.
Activity of CaCo2 extract is also measured employing a modified version of the assay described in Kubota, et al. (Clin. Exp. Immunol., Vol. 89, pgs. 192-197 (1992)). […] After the 10 min. reaction, florescence is measured using a Tecan Ultra fluorimeter (Excitation 360 nm Emission 465 nm). […]

T1 sequence (P27487 whole entry): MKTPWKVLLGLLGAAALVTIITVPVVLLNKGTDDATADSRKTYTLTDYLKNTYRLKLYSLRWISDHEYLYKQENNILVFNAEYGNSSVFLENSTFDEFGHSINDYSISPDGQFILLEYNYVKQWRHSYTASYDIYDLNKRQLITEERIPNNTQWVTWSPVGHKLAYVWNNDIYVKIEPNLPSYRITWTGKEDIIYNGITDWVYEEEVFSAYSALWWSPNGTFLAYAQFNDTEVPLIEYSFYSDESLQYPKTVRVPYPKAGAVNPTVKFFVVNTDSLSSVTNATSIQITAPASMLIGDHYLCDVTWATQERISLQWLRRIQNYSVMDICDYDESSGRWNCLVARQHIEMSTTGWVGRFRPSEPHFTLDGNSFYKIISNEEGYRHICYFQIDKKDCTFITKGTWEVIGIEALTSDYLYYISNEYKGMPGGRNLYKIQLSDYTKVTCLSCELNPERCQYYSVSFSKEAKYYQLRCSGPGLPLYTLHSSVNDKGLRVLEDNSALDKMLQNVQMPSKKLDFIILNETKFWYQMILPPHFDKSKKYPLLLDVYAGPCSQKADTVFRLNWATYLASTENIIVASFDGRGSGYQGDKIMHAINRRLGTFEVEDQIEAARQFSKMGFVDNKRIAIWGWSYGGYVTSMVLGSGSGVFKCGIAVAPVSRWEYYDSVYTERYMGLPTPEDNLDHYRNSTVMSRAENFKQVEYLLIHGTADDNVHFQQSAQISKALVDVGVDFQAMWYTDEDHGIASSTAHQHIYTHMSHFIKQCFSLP

## N[C@@H](CC(=O)NC1Cc2ccccc2NC1=O)Cc1ccccc1F (stereo partly drawn) [Example 1, (3R)-3-Amino-4-(2-fluorophenyl)-N-(2-oxo-1,2,3,4-tetrahydroquinolin-3-yl)butanamide]
  IC50: 0.58 µM
